Laboratory results published in ChEMBL document CHEMBL5360560, “Anti-Vibrio potential of natural products from marine microorganisms” (Eur J Med Chem, 2023).
Values after ≈ are worked out from the molar mass of the structure shown.

Columns and labels:
Type in all cases: functional
Vibrio natriegens = assay: Antimicrobial activity against Vibrio natriegens assessed as bacterial growth inhibition
Vibrio proteolyticus = assay: Antimicrobial activity against Vibrio proteolyticus assessed as bacterial growth inhibition
Vibrio harveyi [1] = assay: Antimicrobial activity against Vibrio harveyi assessed as bacterial growth inhibition
Vibrio harveyi [2] = assay: Antimicrobial activity against Vibrio harveyi QDIO-7 assessed as bacterial growth inhibition by microplate reader assay
Vibrio vulnificus [3] = assay: Antimicrobial activity against Vibrio vulnificus QDIO-7 assessed as bacterial growth inhibition by microplate reader assay
Vibrio parahaemolyticus [4] = assay: Antimicrobial activity against Vibrio parahaemolyticus ATCC 17802 assessed as bacterial growth inhibition mesured after 48 hrs by broth dilution assay
Vibrio parahaemolyticus [5] = assay: Bactericidal activity against Vibrio parahaemolyticus ATCC 17802 assessed as bacterial growth inhibition mesured after 48 hrs by broth dilution assay
Vibrio parahaemolyticus [6] = assay: Antibacterial activity against Vibrio parahaemolyticus assessed as bacterial growth inhibition by agar dilution method
Vibrio vulnificus [7] = assay: Antimicrobial activity against Vibrio vulnificus assessed as bacterial growth inhibition
Vibrio rotiferianus [8] = assay: Antimicrobial activity against Vibrio rotiferianus assessed as bacterial growth inhibition
Vibrio campbellii [9] = assay: Antimicrobial activity against Vibrio campbellii assessed as bacterial growth inhibition
Vibrio parahaemolyticus [10] = assay: Antimicrobial activity against Vibrio parahaemolyticus QDIO-10 assessed as bacterial growth inhibition
Vibrio harveyi [11] = assay: Antimicrobial activity against Vibrio harveyi QDIO-9 assessed as bacterial growth inhibition
Vibrio splendidus [12] = assay: Antimicrobial activity against Vibrio splendidus assessed as zone of inhibition in diameter per disk at 50 ug; conditions: read-out: IZ
Vibrio harveyi [13] = assay: Antimicrobial activity against Vibrio harveyi assessed as zone of inhibition in diameter per disk at 50 ug; conditions: read-out: IZ
Vibrio parahaemolyticus [14] = assay: Antimicrobial activity against Vibrio parahaemolyticus assessed as zone of inhibition in diameter per disk at 50 ug; conditions: read-out: IZ
Vibrio anguillarum [15] = assay: Antimicrobial activity against Vibrio anguillarum assessed as zone of inhibition in diameter per disk at 50 ug; conditions: read-out: IZ
Vibrio parahaemolyticus [16] = assay: Antibacterial activity against Vibrio parahaemolyticus assessed as zone of inhibition measured after 24 to 48 hrs by agar well diffusion assay; conditions: time 24-48 hrs
Vibrio cholerae = assay: Antibacterial activity against Vibrio cholerae assessed as zone of inhibition measured after 24 to 48 hrs by agar well diffusion assay; conditions: time 24-48 hrs
Vibrio alginolyticus [17] = assay: Antibacterial activity against Vibrio alginolyticus assessed as zone of inhibition measured after 24 to 48 hrs by agar well diffusion assay; conditions: time 24-48 hrs
Vibrio harveyi [18] = assay: Antimicrobial activity against Vibrio harveyi assessed as zone of inhibition
Vibrio anguillarum [19] = assay: Antimicrobial activity against Vibrio anguillarum assessed as zone of inhibition
Vibrio parahaemolyticus [20] = assay: Antimicrobial activity against Vibrio parahaemolyticus assessed as zone of inhibition
Vibrio splendidus [21] = assay: Antimicrobial activity against Vibrio splendidus assessed as zone of inhibition
Vibrio sp. [22] = assay: Antibacterial activity against Vibrio sp. assessed as bacterial growth inhibition by GC-MS analysis
Vibrio alginolyticus [23] = assay: Antimicrobial activity against Vibrio alginolyticus QDIO-7 assessed as bacterial growth inhibition by microtiter plate reader analysis
Vibrio vulnificus [24] = assay: Antimicrobial activity against Vibrio vulnificus QDIO-4 assessed as bacterial growth inhibition by microtiter plate reader analysis
Vibrio vulnificus [25] = assay: Antimicrobial activity against Vibrio vulnificus MCCC E1758 assessed as bacterial growth inhibition by resazurin dye based assay
Vibrio campbellii [26] = assay: Antimicrobial activity against Vibrio campbellii MCCC E333 assessed as bacterial growth inhibition by resazurin dye based assay
Vibrio alginolyticus [27] = assay: Antibacterial activity against Vibrio alginolyticus assessed as bacterial growth inhibition
Vibrio rotiferianus [28] = assay: Antibacterial activity against Vibrio rotiferianus MCCC E385 assessed as bacterial growth inhibition measured after 24 hrs by resazurin dye based assay
Vibrio parahaemolyticus [29] = assay: Antimicrobial activity against Vibrio parahaemolyticus assessed as bacterial growth inhibition by MTT assay
Vibrio vulnificus [30] = assay: Antimicrobial activity against Vibrio vulnificus assessed as bacterial growth inhibition by MTT assay
Vibrio parahaemolyticus [31] = assay: Antimicrobial activity against Vibrio parahaemolyticus ATCC 17802 assessed as bacterial growth inhibition by microplate reader assay
Vibrio alginolyticus [32] = assay: Antimicrobial activity against Vibrio alginolyticus assessed as bacterial growth inhibition by microplate reader assay
Vibrio ichthyoenteri = assay: Antimicrobial activity against Vibrio ichthyoenteri assessed as bacterial growth inhibition
Vibrio sp. [33] = assay: Antibacterial activity against Vibrio sp. assessed as bacterial growth inhibition relative to control
Vibrio harveyi [34] = assay: Antimicrobial activity against Vibrio harveyi assessed as bacterial growth inhibition by two fold dilution assay

`C=CC(C)(C)C1(CC2NC(=O)c3ccccc3N(C)C2=O)C(=O)N(O)c2ccccc21` (configuration not stated) showed an MIC (Vibrio natriegens) of 1 µg/mL (≈ 2.38 µM), an MIC (Vibrio proteolyticus) of 0.1 µg/mL (≈ 0.238 µM) and an MIC (Vibrio harveyi [1]) of 1 µg/mL (≈ 2.38 µM).
In the case of `COC(=O)CCc1oc2cc(O)cc(C)c2c1-c1cc(O)c(C)c(O)c1C`, the MIC (Vibrio harveyi [2]) was 32 µg/mL and the MIC (Vibrio vulnificus [3]) was 64 µg/mL.
Molecule `COc1ccc(Oc2cc(C)cc(O)c2)c(O[C@@H]2O[C@H](CO)[C@H](O)[C@H](O)[C@H]2O)c1` has an MIC (Vibrio parahaemolyticus [4]) of 0.625 µM (≈ 0.255 µg/mL) and an MBC (Vibrio parahaemolyticus [5]) of 2.5 µM (≈ 1.02 µg/mL).
`CO[C@H](C)[C@@H](/C=C/C=C/C(=O)N(C)[C@H]1CCCN(C)C(=O)[C@H](C)N(C)C(=O)[C@H](C(C)C)N(C)C1=O)OC` showed an MIC (Vibrio parahaemolyticus [6]) of 25 µM (≈ 13.1 µg/mL).
With `COC(OC)c1ccc2c(c1O)C(=O)c1ccccc1C2=O` the MIC (Vibrio vulnificus [7]) was 15.6 µg/mL (≈ 52.3 µM), the MIC (Vibrio rotiferianus [8]) was 15.6 µg/mL (≈ 52.3 µM) and the MIC (Vibrio campbellii [9]) was 15.6 µg/mL (≈ 52.3 µM).
With `C=C[C@@]1(C)CCC2=C(C(=O)C=C3C(C)(C)CCC[C@]32O)[C@@H]1O` the MIC (Vibrio parahaemolyticus [10]) was 8 µg/mL (≈ 26.5 µM) and the MIC (Vibrio harveyi [11]) was 8 µg/mL (≈ 26.5 µM).
`Cc1cc(O)cc(O)c1-c1cc2cc(O)cc(O)c2c(=O)o1` gave a zone of inhibition at 50 µg/disc (Vibrio splendidus [12]) of 7 mm, a zone of inhibition at 50 µg/disc (Vibrio harveyi [13]) of 7 mm and a zone of inhibition at 50 µg/disc (Vibrio parahaemolyticus [14]) of 7 mm. For the same molecule, the zone of inhibition at 50 µg/disc (Vibrio anguillarum [15]) was 7 mm.
`CCCCCCCCCCCCC(=O)NCCC(C)C` was tested, and the “inhibition zone (IZ)” value (Vibrio parahaemolyticus [16]) was 9.66 mm, the “inhibition zone (IZ)” value (Vibrio cholerae) was 13.7 mm and the “inhibition zone (IZ)” value (Vibrio alginolyticus [17]) was 16.3 mm.
For `CC(=O)CCC[C@H](C)[C@@H]1C=C[C@@](C)(O[C@H]2O[C@H](CO)[C@@H](O)[C@H](O)[C@H]2NC(C)=O)CC1`, the MIC (Vibrio harveyi [18]) was 6.1 µg/mL (≈ 14.3 µM), the MIC (Vibrio anguillarum [19]) was 6.1 µg/mL (≈ 14.3 µM) and the “inhibition zone (IZ)” value (Vibrio parahaemolyticus [20]) was 6.1 mm. The MIC (Vibrio splendidus [21]) was 6.1 µg/mL (≈ 14.3 µM).
With `O=C1CCC2(CCC(=O)N2)N1` the MIC (Vibrio sp. [22]) was ≤ 0.78 µg/mL.
For `COC(=O)/C=C/C=C/C(=O)N[C@H]1CCCNC(=O)[C@H](C)N(C)C(=O)[C@H](C(C)C)N(C)C1=O`, the MIC (Vibrio parahaemolyticus [6]) was 6.25 µM (≈ 2.82 µg/mL).
`CC(=O)OC/C=C\c1ccc(O)cc1CO` gave an MIC (Vibrio alginolyticus [23]) of 8 µg/mL and an MIC (Vibrio vulnificus [24]) of 8 µg/mL.
`Cc1c(O)cc(O)cc1[C@H](C)[C@@H](C)OC=O` was tested, and the MIC (Vibrio vulnificus [25]) was 15.7 µg/mL (≈ 70 µM) and the MIC (Vibrio campbellii [26]) was 15.6 µg/mL (≈ 69.6 µM).
`CCCCCCC(O)CCCCCC/C=C/C(O)C1C=C(NC(C)=O)C(=O)O1` (configuration not stated) was tested, and the MIC (Vibrio alginolyticus [27]) was 8 µg/mL (≈ 20.2 µM).
Work on `CC[C@H](C)/C=C/C1=CC2=C(Cl)C(=O)[C@@]3(C)OC(=O)C(C(=O)[C@@H](C)[C@@H](C)O)=C3C2=CN1NC(=O)c1ccc(O)cc1` yielded an MIC (Vibrio rotiferianus [28]) of 7.3 µg/mL (≈ 12.9 µM).
For `CC(=O)c1ccccc1C[C@@H](O)/C=C/CC(=O)O[C@@H]1/C=C/C=C\C[C@H](O)C[C@@H](O)/C=C/C=C/CCC[C@@H](C)OC(=O)/C=C\C=C\C1`, the MIC (Vibrio parahaemolyticus [29]) was 3.12 µg/mL (≈ 4.93 µM) and the MIC (Vibrio vulnificus [30]) was 3.12 µg/mL (≈ 4.93 µM).
Work on `COc1c(Cl)c(C)c(Cl)c2c1[C@H]1c3c(O)c(C)cc(O)c3C[C@@H]1C(C)(C)O2` (racemic) yielded an MIC (Vibrio parahaemolyticus [31]) of 20 µM and an MIC (Vibrio alginolyticus [32]) of 20 µM.
In the case of `COc1c(Cl)c(C)c(Cl)c2c1[C@H]1c3c(O)c(C)cc(O)c3C[C@H]1C(C)(C)O2` (racemic), the MIC (Vibrio parahaemolyticus [31]) was 10 µM and the MIC (Vibrio alginolyticus [32]) was 10 µM.
Work on `Cc1cc(O)cc(Oc2cc(C)cc(O)c2O)c1` [CORDYOL C] yielded an MIC (Vibrio ichthyoenteri) of 40 µg/mL (≈ 162 µM).
For `COc1cc(C)c(Oc2cc(C)cc(O)c2)c(O)c1` [CYPERIN], the MIC (Vibrio parahaemolyticus [4]) was 0.312 µM (≈ 0.0812 µg/mL) and the MBC (Vibrio parahaemolyticus [5]) was 0.312 µM (≈ 0.0812 µg/mL).
Molecule `Cc1cc(O)cc(Oc2cc(C)cc(O)c2)c1` [DIORCINOL] has an MIC (Vibrio ichthyoenteri) of 40 µg/mL (≈ 174 µM).
`Cc1cc(O)c2c(c1)C(=O)c1cc(O)cc(O)c1C2=O` [EMODIN] was tested, and the MIC (Vibrio vulnificus [7]) was 15.6 µg/mL (≈ 57.7 µM), the MIC (Vibrio rotiferianus [8]) was 15.6 µg/mL (≈ 57.7 µM) and the MIC (Vibrio campbellii [9]) was 15.6 µg/mL (≈ 57.7 µM).
With `COc1cc(-c2ccc(O)cc2)c(OC)c(O)c1-c1ccc(O)cc1` [TERPHENYLLIN] the “inhibition (INH)” value (Vibrio sp. [33]) was >80%.
`COC(=O)C1=CC(=O)C=C(OC)C12Oc1cc(C)cc(OC)c1C2=O` (configuration not stated) [TRYPACIDIN] gave an MIC (Vibrio harveyi [34]) of 31.2 µg/mL (≈ 90.6 µM).
